20 compounds from patent US20050256132A1, “Use of ER selective NF-kB inhibitors for the treatment of sepsis” (priority 2003, published 2005) can be followed below.

SMILES strings stand for the structures. Structures can show the parent of a compound that is named as a salt.

In one series the test system is ER/IL-6. Kind of series: Endothelial Cell ER/IL-6 Assay, IL-6 promoter luciferase (Table 2). The class given is cell-based, human. The conditions noted are these: Homo sapiens, HAECT1, ERα infected HAECT-1 cells, IL-1β; for Emax: read-out: IL6 luc % Efficacy; for IC50: read-out: IL6 luc IC50. On the procedure:
T-175 flasks of 100% confluent HAECT-1 cells (immortalized human aortic endothelial cells) were washed with 8 ml of HBSS (HEPES buffered saline solution) and infected for fours hours with 6 ml of a 1:10 dilution of Ad5-wt-hERα virus (an adenovirus transfection vector that mediates CMV promoter driven expression of human ERα) in phenol red free Endothelial Cell Basal medium (Clonetics, San Diego, Calif., Catalog # CC-3129) containing 0.25% bovine serum albumin (EDM-BSA). After four hours, cells were washed with EDM-BSA and incubated overnight in the same medium. Following overnight incubation, cells were washed with EDM-BSA and infected for 2 hours with 6 ml of a 1:10 dilution of Ad5-3x(NFκB).Luc virus (Adenovirus luciferase expression vector driven by three repeats of the MHC NFκb sites 5′ to the thymidine kinase promoter) in EDM-BSA. After two hours, cells were washed and incubated at 34° C. for one hour. Cells were then washed, trypsinized, counted, and resuspended in 95% FBS/5% dimethylsulfoxide at a concentration of […], frozen as 1 or 5 ml aliquots in cryo-vials and stored at −150° C. Control (no ER infection) cells were processed as above without Ad5-wt-hERα virus infection.
ERα infected HAECT-1 cells or control cells were thawed, diluted 42× in warm EBM-BSA, plated into 96-well plates at 0.1 ml/well and incubated for 4 hours at 34° C. Test compounds were added to the cells at 2× stocks in EBM-BSA containing 2 ng/ml IL-1β Ad6-IL-6(1250 bp).Luc virus and plates were returned to the incubator (34° C.). After […], cells were lysed with 50 μl of Promega Cell Culture Lysis reagenet for about 5 minutes at room temperature on a shaker. After lysing, 15 μl of lysate is transferred to luminometer plates for luciferase determination. Luciferase activity is evaluated using a Perkin Elmer Victor2 1420 multilabel counter. Creatine kinase was determined from the rate of increase in A340 following addition of 100 μl of CK assay reagent (Sigma catalog no. 47-10) to the remainder of the cell lysate.
For IC50 and EC50 calculations, mean IL-6, luciferase or CK values versus log10 of the compound concentration were fitted to a four parameter logistic equation. The IC50/EC50 value, ‘Hill slope,’ upper and lower limits of the curve were iteratively estimated.

For orientation: melting point means the temperature, or range, at which the solid turns liquid. Regarding `C[C@@](C#N)(C(=O)O)[C@H](c1ccccc1C(F)(F)F)c1cccc2ccccc12` (racemic), the melting point is 220 °C (dec.).

Consider `CCN(CC)CC[C@](C#N)(C(=O)OC)[C@H](c1ccccc1OC)c1cccc2ccccc12` (relative stereo) (as salt: HCl) [Example 148, Methyl (2S*)-2-cyano-4-(diethylamino)-2-[(S*)-(2-methoxyphenyl)(1-naphthyl)methyl]butanoate], for which the melting point is 174 °C (dec.).

Broadly, the IC50 is the concentration that gives 50% inhibition. Regarding `COC(=O)[C@@](C#N)(Cc1ccncc1)[C@H](c1ccccc1OC)c1cccc2ccccc12` (relative stereo) [Example 142, Methyl (2S*,3S*)-2-cyano-3-(2-methoxyphenyl)-3-(1-naphthyl)-2-(pyridin-4-ylmethyl)propanoate], the melting point is 228 to 230 °C (dec.). In addition, in the series with ER/IL-6, the Emax was 103% and the concentration for half-maximal inhibition (IC50) was determined as 69 nM.

Consider `COC(=O)[C@@](C#N)(Cc1cccnc1)[C@H](c1ccccc1OC)c1cccc2ccccc12` (relative stereo) [Example 145, Methyl (2S*,3S*)-2-cyano-3-(2-methoxyphenyl)-3-(1-naphthyl)-2-(pyridin-3-ylmethyl)propanoate], for which the melting point was in the range of 160 to 164.4 °C. Further, in the series with ER/IL-6, the Emax is 102%.

On to `COC(=O)[C@@](C#N)(COCc1ccccc1)[C@H](c1ccccc1OC)c1cccc2ccccc12` (relative stereo) [Example 146, Methyl (2S*,3S*)-2-[(benzyloxy)methyl]-2-cyano-3-(2-methoxyphenyl)-3-(1-naphthyl)propanoate], for which the melting point lay in the range of 132.9 to 134.4 °C. In the series on ER/IL-6, the Emax came to 135% and the concentration for half-maximal inhibition (IC50) amounted to 5.5 nM.

As to `COC[C@](C#N)(C(=O)OC(C)(C)C)[C@H](c1ccccc1OC)c1cccc2ccccc12` (relative stereo) [Example 149, tert-Butyl (2S*,3S*)-2-cyano-2-(methoxymethyl)-3-(2-methoxyphenyl)-3-(1-naphthyl)propanoate], the melting point lay within 163 to 165.3 °C. In the series with ER/IL-6, the Emax came to 102% and the IC50 turned out to be 18 nM.

With `COc1ccccc1[C@H](c1cccc2ccccc12)[C@](C#N)(COCc1ccccc1)C(=O)OC(C)(C)C` (relative stereo) [Example 154, tert-Butyl (2S*,3S*)-2-[(benzyloxy)methyl]-2-cyano-3-(2-methoxyphenyl)-3-(1-naphthyl)propanoate], the melting point lay in the range of 166 to 170 °C. Moreover, in the series on ER/IL-6, the Emax was determined as 87% and the IC50 worked out at 6 nM.

`COc1ccccc1[C@@H](c1cccc2ccccc12)[C@](C#N)(COCc1ccccc1)C(=O)N1CCN(CCCN(C)C)CC1` (relative stereo) [Example 205, (2S*)-2-[(benzyloxy)methyl]-3-{4-[3-(dimethylamino)propyl]piperazin-1-yl}-2-[(R*)-(2-methoxyphenyl)(1-naphthyl)methyl]-3-oxopropanenitrile]: the melting point is 192 to 193 °C. Besides, in the series with ER/IL-6, the Emax was 58% and the 50% inhibitory concentration (IC50) stood at 334 nM.

`COc1ccccc1[C@H](c1cccc2ccccc12)[C@@](C)(C#N)C(=O)N1CCN(c2ccncc2)CC1` [Example 133, (2S,3S)-3-(2-methoxyphenyl)-2-methyl-3-(1-naphthyl)-2-[(4-pyridin-4-ylpiperazin-1-yl)carbonyl]propanenitrile] had a melting point of 142 to 144 °C. Besides, in the series with ER/IL-6, the Emax worked out at 81% and the IC50 came out at 206 nM.

Regarding `COc1ccccc1[C@H](c1cccc2ccccc12)[C@@](C)(C#N)C(=O)N1CCC(N2C(=O)CCc3ccccc32)CC1` [Example 134, (2S,3S)-3-(2-methoxyphenyl)-2-methyl-3-(1-naphthyl)-2-{[4-(2-oxo-3,4-dihydroquinolin-1(2H)-yl)piperidin-1-yl]carbonyl}propanenitrile], the melting point fell in the range of 265 to 267 °C. Moreover, in the series on ER/IL-6, the Emax came to 85% and the IC50 was determined as 612 nM.

For `COc1ccccc1[C@H](c1cccc2ccccc12)[C@@](C)(C#N)C(=O)N1CC=C(c2ccc(Br)cc2)CC1` [Example 135, (2S)-3-[4-(4-bromophenyl)-3,6-dihydropyridin-1(2H)-yl]-2-[(S)-(2-methoxyphenyl)(1-naphthyl)methyl]-2-methyl-3-oxopropanenitrile], the melting point is 136 to 139 °C. In the series on ER/IL-6, the Emax was found to be 119% and the IC50 is 65 nM.

Consider `COc1ccccc1[C@H](c1cccc2ccccc12)[C@@](C)(C#N)C(=O)N1CCN(c2cccc(C(F)(F)F)c2)CC1` [Example 136, (2S,3S)-3-(2-methoxyphenyl)-2-methyl-3-(1-naphthyl)-2-({4-[3-(trifluoromethyl)phenyl]piperazin-1-yl}carbonyl)propanenitrile], for which the melting point lay within 158 to 162 °C. Also, in the series with ER/IL-6, the Emax is 142% and the IC50 amounted to 63 nM.

For `COc1ccccc1[C@H](c1cccc2ccccc12)[C@@](C)(C#N)C(=O)N1CCC(C2CCCC(C(F)(F)F)C2)CC1` (stereo partly drawn) [Example 139, (2S,3S)-3-(2-methoxyphenyl)-2-methyl-3-(1-naphthyl)-2-({4-[3-(trifluoromethyl)cyclohexyl]piperidin-1-yl}carbonyl)propanenitrile], the melting point lay within 160 to 165 °C. Besides, in the series with ER/IL-6, the Emax turned out to be 98% and the IC50 is 113 nM.

`COC[C@](C#N)(C(=O)OC)[C@H](c1ccccc1OC)c1cccc2ccccc12` [Example 150, Methyl (2S,3S)-2-cyano-2-(methoxymethyl)-3-(2-methoxyphenyl)-3-(1-naphthyl)propanoate] showed a melting point of 176 to 178 °C.

Consider `COC(=O)[C@@](C#N)(Cc1cccnc1)[C@H](c1ccccc1OC)c1cccc2ccccc12` [Example 156, Methyl (2S,3S)-2-cyano-3-(2-methoxyphenyl)-3-(1-naphthyl)-2-(pyridin-3-ylmethyl)propanoate], for which the melting point was 193 °C (dec.). In addition, in the series on ER/IL-6, the Emax stood at 73%.

On to `COc1ccccc1C(c1ccnc2ccccc12)C(C)(C#N)C(=O)N1CCC(c2cccc(C(F)(F)F)c2)CC1` (stereo not shown) [Example 161, 3-(2-Methoxyphenyl)-2-methyl-3-quinolin-4-yl-2-({4-[3-(trifluoromethyl)phenyl]piperidin-1-yl}carbonyl)propanenitrile], for which the melting point lay in the range of 163 to 165 °C. Moreover, in the series on ER/IL-6, the Emax is 122% and the half-maximal inhibitory concentration (IC50) came to 798 nM.

With `COc1ccccc1[C@H](c1cccc2ccccc12)[C@@](C)(C#N)C(=O)N1CC=C(c2c[nH]c3ccccc23)CC1` [Example 182, (2S)-3-[4-(1H-indol-3-yl)-3,6-dihydropyridin-1(2H)-yl]-2-[(s)-(2-methoxyphenyl)(1-naphthyl)methyl]-2-methyl-3-oxopropanenitrile], the melting point is 229 to 231 °C. In the series with ER/IL-6, the Emax was 74% and the 50% inhibitory concentration (IC50) is 45 nM.

Regarding `COc1ccccc1[C@H](c1cccc2ccccc12)[C@@](C)(C#N)C(=O)N1CCC2(CC1)C(=O)NCN2c1ccccc1` [Example 184, (2S,3S)-3-(2-methoxyphenyl)-2-methyl-3-(1-naphthyl)-2-[(4-oxo-1-phenyl-1,3,8-triazaspiro[4.5]dec-8-yl)carbonyl]propanenitrile], the melting point fell in the range of 176 to 178 °C. In the series on ER/IL-6, the Emax is 88% and the IC50 stood at 445 nM.

`COc1ccccc1[C@H](c1cccc2ccccc12)[C@@](C)(C#N)C(=O)N1CCC(c2cccc(C(F)(F)F)c2)C(O)C1` (stereo partly drawn) [Example 185, (2S)-3-{3-hydroxy-4-[3-(trifluoromethyl)phenyl]piperidin-1-yl}-2-[(S)-(2-methoxyphenyl)(1-naphthyl)methyl]-2-methyl-3-oxopropanenitrile]: the melting point was determined as 259 °C. For the same compound, in the series on ER/IL-6, the Emax worked out at 116% and the IC50 amounted to 288 nM.

In turn, `COc1ccccc1[C@H](c1cccc2ccccc12)[C@@](C)(C#N)C(=O)N1CCc2[nH]c3ccc(F)cc3c2C1` [Example 189, (2S)-3-(8-fluoro-1,3,4,5-tetrahydro-2H-pyrido[4,3-b]indol-2-yl)-2-[(S)-(2-methoxyphenyl)(1-naphthyl)methyl]-2-methyl-3-oxopropanenitrile] showed a melting point of 172 to 174 °C. Besides, in the series on ER/IL-6, the Emax came out at 103% and the IC50 was 348 nM.
